These results are taken from patent US20040023884A1, “Biologically active peptides from functional domains of bactericidal/permeability-increasing protein and uses thereof” (priority 1993, published 2004).

One experiment has as its system Pseudomonas aeruginosa. Put plainly: Radial diffusion bactericidal assay, Pseudomonas aeruginosa. The class given is cell-based. The conditions noted are these: FIG. 11a; up to about 2000 pmol.
Another experiment concerns E. coli O18:K1:H7. The experiment can be described thus: Radial diffusion bactericidal assay, E. coli O18:K1:H7. The class given is cell-based. The conditions noted are these: FIG. 11b; up to about 2000 pmol.
The subject of a further experiment is E. coli O75. Put plainly: Radial diffusion bactericidal assay, E. coli O75. Conditions: FIG. 11d; up to about 2000 pmol. It is filed as cell-based.
Experiment [1] concerns L-form of S. aureus ATCC 19640. The experiment can be described thus: Activity against L-forms of gram-positive bacteria. The class given is cell-based. How it is done:
The bactericidal capacity of BPI peptides provided by the invention was also tested against Gram-positive bacteria (See Table VIII A). […] In addition, peptides were tested for their activity against L-forms of gram-positive bacteria, such as the L-form of S. aureus ATCC 19640.

The test system of the next experiment is Candida albicans. The class given is cell-based.
Experiment [2] in a line: Binding of [125I]-RaLPS to peptides pre-bound to HUVEC cells. It is filed as cell-based, human. Conditions: 1 μg/mL or 3 μg/mL peptide. How it is done:
In a third binding assay, a number of BPI functional domain peptides were tested for their ability to bind to radiolabeled LPS following incubation with human endothelial cells (HUVEC). This assay measures the ability to bind LPS once the BPI peptides are bound to HUVEC cells. HUVEC cells were incubated in the presence of various BPI peptides at a concentration of either 1 μg/mL or 3 μg/mL for 3 hr at 4° C. in 500 μL of a solution of D-PBS/BSA. Following this incubation, the cells were washed twice with ice-cold D-PBS/BSA and then incubated for an additional 2.5 hr at 4° C. in 500 μL of a solution of [^125I]-RaLPS (a total of 340,000 cpm at a specific activity of 4.6×10^6 cpm/μg) in D-PBS/BSA. The wells were washed three times with D-PBS/BSA, solubilized in 500 μL of 1M NaOH and the lysates counted using a gamma counter.

The test system of experiment [3] is Klebsiella pneumoniae 19645. Put plainly: Radial diffusion bactericidal assay, antibiotic resistant Klebsiella pneumoniae 19645. It is filed as cell-based. How it is done: These studies were conducted substantially following the procedures used in Example 2.
In order to test the bactericidal activity of BPI peptides on antibiotic resistant strains of Klebsiella pneumoniae, the multi-resistant clinically isolated strain 19645 was tested as in Example 2 and above. […] This strain was obtained from the Baxter Microscan® library (Sacramento, Calif.). An overnight culture of Klebsiella pneumoniae 19645 and a non-resistant strain (ATCC 29011) were diluted 1:50 into fresh tryptic soy broth and incubated for 3 hours at 37° C. to attain log phase. The overnight cultures were tested as described in Example 2 and part A above.

A further experiment concerns E. coli O86a:K61. The experiment can be described thus: Broth bactericidal assay, E. coli O86a:K61. It is filed as cell-based. Conditions: FIG. 11j.
The next experiment relates to E. coli 0111:B4 (smooth). The experiment can be described thus: Broth antibacterial assay, E. coli 0111:B4. It is filed as cell-based. How it is done:
(§1) In additional experiments, broth antibacterial assays were conducted to further determine the bactericidal activity of certain of the BPI peptides. Specifically, either E. coli J5 (rough) or E. coli 0111:B4 (smooth) bacteria were selected from single colonies on agar plates and used to inoculate 5 mL of Mueller Hinton broth and incubated overnight at 37° C. with shaking. The overnight culture was diluted (˜1:50) into 5 mL fresh broth and incubated at 37° C. to log phase (˜3 hours). Bacteria were pelleted for 5 minutes at 3000 rpm (1500×g). Bacterial pellets were resuspended in 5 mL PBS and diluted to 2×10^6 cells/mL in the Mueller Hinton broth (wherein 1 OD570 unit equals 1.25×10^9 CFU/mL). The BPI functional domain peptides to be tested were diluted to 200 μg/mL in broth and serially diluted 2-fold in 96 well culture plates (100 μL volume). All items were at 2-fold final concentration and experiments were conducted in triplicate. Bacteria were added at 100 μL/well and the plates were incubated on a shaker at 37° C. for a 20 hour period. The plates were then read on an ELISA plate multiple reader at 590 nm. One of the triplicate wells from each peptide concentration was selected for colony forming unit (CFU) determination. A 30 μL aliquot was added to 270 μL of PBS and further ten-fold serial dilutions were performed. Then a 50 μL aliquot was plated on tryptic soy agar and incubated overnight. Colonies were counted and final bacterial concentrations determined. The results of these assays are depicted in FIGS. 9e (for E. coli J5) and 9f (for E. coli 0111:B4).

The test system of the next experiment is E. coli J5 (rough). The experiment can be described thus: Broth antibacterial assay, E. coli J5. The class given is cell-based. How it is done:
as §1

The subject of the next experiment is ATIII/heparin complexes. The experiment can be described thus: Thrombin inactivation by ATIII/heparin complexes (Chromostrate anti-thrombin assay). It is filed as biochemical. The conditions noted are these: 1.0 to 100 μg/mL. How it is done: BPI functional domain peptides BPI.2, BPI.3, BPI.4, BPI.5, BPI.6, and BPI.8, along with rBPI23 as a positive control, were assayed for their effect on thrombin inactivation by ATIII/heparin complexes according to the method of Example 3 in copending and co-assigned U.S. patent application Ser. No. 08/093,202, filed Jul. 15, 1993, incorporated by reference. Specifically, a Chromostrate™ anti-thrombin assay kit (Organon Teknika Corp., Durham, N.C.) was used to examine the inhibition of purified thrombin by preformed ATIII/heparin complexes in plasma.
Briefly, the assay was performed in 96 well microtiter plates in triplicate with a final volume per well of 200 μL. Varying concentrations of the BPI functional domain peptides ranging from 1.0 μg/mL to 100 μg/mL were assayed to determine their effect on thrombin inhibition in the presence of pre-formed ATIII/heparin complexes. The order of addition of assay components was as follows: 1) a dilution series of rBPI23 or BPI functional domain peptides or thaumatin as a control protein, with final concentrations of 100, 50, 25, 10 and 1 μg/well, diluted in PBS in a final volume of 50 μL; 2) 50 μL plasma diluted 1:100 in a buffer supplied by the manufacturer, 3) 50 μl thrombin at 1 nKat/mL in a buffer supplied by the manufacturer, and 4) 50 μL chromogenic substrate at a concentration of 1 μmol/mL in water. The reaction was allowed to proceed for 10 minutes at 37° C. and stopped with the addition of 50 μL 0.1M citric acid. The colorimetric reaction was quantitated on a microplate reader as described in Example 3.

Ends that are not written are not given here.

Take “KSKVGWLIQLFHKK-NH2 (C-terminus assumed) [BPI.13]”: the “bactericidal activity (in words)” value with Pseudomonas aeruginosa, with E. coli O18:K1:H7 and with E. coli O75 was “showed bactericidal activity” throughout. Further, the “activity against L-form bacteria (in words)” value in experiment [1] is listed as “active against these L-form bacteria”. For the same substance, the “MIC C. alb” value in the experiment with Candida albicans worked out at 6.25 µg/mL.

With “KSKVGWLIQLFHKKKSKVGWLIQLFHKK-NH2 (C-terminus assumed) [BPI.29]”, the “LPS binding while bound to HUVEC cells (in words)” value in experiment [2] is reported as “retain the capacity to bind LPS while bound to HUVEC cells”.

As for KWKAAARFLKKWKAAARFLK [BPI.48], the “bactericidal activity (in words)” value in [3] is “active against antibiotic resistant Klebsiella”. The “activity against L-form bacteria (in words)” value in experiment [1] is given as “active against these L-form bacteria”.

“KWKAQKRFLKKSKVGWLIQLFHKK-NH2 (C-terminus assumed) [BPI.30]”: the “bactericidal activity (in words)” value with Pseudomonas aeruginosa, with E. coli O18:K1:H7, in the experiment with E. coli O86a:K61 and in the experiment with E. coli O75 was “showed bactericidal activity” in each case. In experiment [2], the “LPS binding while bound to HUVEC cells (in words)” value is “retain the capacity to bind LPS while bound to HUVEC cells”.

On to “KWKAQKRFLKKWKAQKRFLK-NH2 (C-terminus assumed) [BPI.7]”, for which the “bactericidal activity (in words)” value in [3] was “active against antibiotic resistant Klebsiella”; in the experiment with E. coli 0111:B4 (smooth) it was “significant bactericidal activity”; in the experiment with E. coli J5 (rough), “significant bactericidal activity”. Further, in the experiment with ATIII/heparin complexes, the “heparin neutralization effect (in words)” value is “significant heparin neutralization effects”.

For the substance NVGLKFSISNANIKISGKWKAQKRFLK [BPI.3], the “bactericidal activity (in words)” value with E. coli 0111:B4 (smooth) was “less activity”; in the experiment on E. coli J5 (rough), “significant anti-bacterial activity”. For the same substance, the “heparin neutralization effect (in words)” value in the experiment with ATIII/heparin complexes is given as “most significant heparin neutralization effects”.
